The text below walks through data of ChEMBL document CHEMBL1201862, “PubChem BioAssay data set” (2004).

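Where inhibition never reached the appropriate level, the endpoint shown equals the highest concentration tested. Otherwise, values were interpolated linearly from a five-concentration, 48-hour dose response in 96-well plates. At the GI50, growth is halved.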 Calls of active or inactive are those of the source. No stated cut-off is given here; in the data, active = GI50 up to about 1.1 µM and inactive = higher.

Holding throughout (experiment): NCI anticancer screen, dose series, 48 h
Assay [1] deals with XF498.
Assay [2] has as its system RXF 631.
For assay [3], the system named is M19-MEL.
In assay [4] the test system is SNB-78.
For assay [5], the system named is DMS-114.
Assay [6] deals with HOP-18.
Assay [7] relates to LXFL 529.
The test system of assay [8] is DMS-273.
Assay [9] deals with DLD-1.

As to `COc1ccc(NC(=O)CC(=O)n2nc(-c3ccccc3)c(/N=N/c3ccc(C)cc3)c2-c2ccccc2)cc1`, the GI50 in assay [1] was 12.4 µM (inactive); in assay [2] it was 54.5 µM (inactive); in assay [3], 28.9 µM (inactive); in [4] it was 20.8 µM (inactive); in assay [5], > 49.5 µM (inactive); in assay [6] it was 24.3 µM (inactive). The GI50 was 40.8 µM (inactive) in assay [7], 33.3 µM (inactive) in assay [8] and > 79.3 µM (inactive) in assay [9].
`COc1cc2c(c(OC)c1OC)-c1ccc(SC)c(=O)cc1[C@@H](NCc1cccc([N+](=O)[O-])c1)CC2`: the GI50 in assay [1] was < 0.01 µM (active); in [2], < 0.01 µM (active); in assay [3], < 0.01 µM (active); in assay [4], < 0.01 µM (active); in assay [5], < 0.01 µM (active); in assay [6] it was > 100 µM (inactive). Besides, the GI50 in assay [7], in assay [8] and in assay [9] was < 0.01 µM (active) in each case.
